Laboratory results reported in patent US12583818B2 (DAEGU-GYEONGBUK MEDICAL INNOVATION FOUNDATION, priority 2020, dated 2026).
Like-named read-outs stand apart in the source and are kept apart here.

Assays:
[1] = system: A2780-SP cells (ovarian cancer stem cells); experiment: Sphere cell viability of A2780-SP cells (Cell-titer Glo); type: cell-based
Procedure, shortened: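 A2780-SP ovarian cancer stem cells grown as spheres in ultra-low-attachment wells (1,500 cells/well) in neurobasal stem-cell medium with bFGF, EGF, B27. Compound added the day after plating, re-dosed on day 4, 8-day culture total; viability by CellTiter-Glo luminescence.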

[2] = target: T1, Pin1 (Homo sapiens, UniProt Q13526); experiment: Evaluation of Pin1 enzyme inhibitory activity (Sensolyte Green Pin1 assay kit); type: biochemical
T1 construct: purchased Anaspec
T1 sequence (Q13526 whole entry): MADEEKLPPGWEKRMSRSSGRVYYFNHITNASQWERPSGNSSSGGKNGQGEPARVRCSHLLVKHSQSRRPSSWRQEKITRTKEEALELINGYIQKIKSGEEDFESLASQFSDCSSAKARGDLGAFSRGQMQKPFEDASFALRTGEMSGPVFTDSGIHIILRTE
Procedure, shortened: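 Compounds were tested at four working concentrations (100, 10, 1, 0.1 μM), mixed with Pin1 (50 μg/ml stock dilution), developer and substrate (1 μM as prepared). Fluorescence at 490/520 nm was recorded after 2 h in the dark at room temperature. Results were grouped into grades A–D by inhibiting concentration.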

[3] = system: MCF7-SP cells (breast cancer stem cells); experiment: Sphere cell viability of MCF7-SP cells (Cell-titer Glo); type: cell-based
Description: (§1) In order to confirm the inhibitory effect of the compound represented by formula 1 according to the present invention on the growth of MCF7, MCF7-SP, A2780 or A2780-SP cells, the following experiment was performed, and the results are shown in Tables 4 and 5 below.
On the other hand, MCF7-SP cells (breast cancer stem cells) were plated in an Ultra-Low Attachment round bottom 96-well plate (corning) at the density of 1,500 viable cells per well, and cultured in cancer stem cell medium. The cancer stem cell medium is composed of the neurobasal medium supplemented with 20 ng/ml of bFGF, 10 ng/ml of EGF, 2.5 […], HEPES, Glutamax and B27.
On the next day of culture, the cells were treated with the compound of Example 71, 76, 80, 84, 92, 99, 100 or 119, followed by culture for 8 days. The medium containing the compound was added thereto once again on the 4th day. Sphere cell viability was evaluated by Cell-titer Glo (Promega, WC, USA), and luciferase activity was detected using a Tecan plate reader (Biocompare, USA).

[4] = system: MDA-MB 231 triple negative breast cancer cell line; experiment: MDA-MB 231 protein expression inhibition (Western blotting, cycline D1 vs Vinculin); type: cell-based; conditions: Homo sapiens, compound 10 μM, 72 hours, cycline D1 Western blot, read-out: MBA-MB-231 (amount of the protein compared to the DMSO-treated control group)
Description: In order to confirm the ability of the compound represented by formula 1 according to the present invention to inhibit the protein expression of MDA-MB 231 triple negative breast cancer cell line, the following experiment was performed, and the results are shown in Table 3 below.
MDA-MB-231 cells were cultured in a 5% CO2 incubator at 37° C. using RPMI medium supplemented with 10% FBS and 1% penicillin/streptomycin.
The cells were washed with PBS once a day, and then replaced with a new medium. The cells grown at the density of at least 90% 1 day before the experiment were detached using trypsin/EDTA, and then plated at the density of 100,000 per well in a 6-well plate.
On the next day of culture, the compound prepared in each example was treated at a concentration of 10 μM, and DMSO was treated at a concentration of 0.1% of the total as the control, followed by incubation for 72 hours. After 72 hours, the cells were washed twice with PBS, collected by scraping, and centrifuged at 13,000 rpm for 3 minutes to remove all the supernatant and only cells were taken.
RIPA buffer (containing 1× protease inhibitor and phosphatase inhibitor) was added to the prepared cells (80 μl/well), and the plate was shaken once every 5 minutes to disrupt the cells for a total of 15 minutes. The disrupted cells were centrifuged at 13,000 rpm for 15 minutes to collect only the supernatant protein. The obtained protein was quantified using a BCA protein quantification kit (Pierece, MA, USA), and a total of 10 μg of the protein was used for Western blotting.
The protein sample was isolated by 10% SDS-PAGE, and transferred to a PVDF membrane. Anti-human cycline D1 antibody (Cell signal) and anti-Vinculin antibody were bound to the protein sample, and the expression of the protein was measured by using an ECL reagent and LAS4000 equipment. The measurement results were quantified and generalized using ImageJ. The results are shown in Table 3 below by dividing the grades A to D according to the amount of the protein compared to the DMSO-treated control group.

[5] = system: A2780 cells (ovarian cancer cells); experiment: Cell viability of A2780 cells (Cell-titer Glo); type: cell-based; conditions: Homo sapiens
Procedure, shortened: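 A2780 ovarian cancer cells seeded at 3000 viable cells/well in RPMI-1640 with 10% FBS, dosed the next day and grown 3 days. Viability measured by Cell-titer Glo luminescence.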

[6] = system: MCF7 cells (breast cancer cells); experiment: Cell viability of MCF7 cells (Cell-titer Glo); type: cell-based; conditions: Homo sapiens
Description: as §1
MCF7 cells (breast cancer cells) were plated in a 96-well plate at the density of 3000 viable cells per well, and cultured in DMEM/High glucose medium supplemented with 10% FBS and 1% penicillin/streptomycin.
On the next day of culture, the cells were treated with the compound of Example 71, 76, 80, 84, 92, 99, 100 or 119, followed by culture for 3 days. Cell viability was evaluated by Cell-titer Glo (Promega, WC, USA), and luciferase activity was detected using a Tecan plate reader (Biocompare, USA).

[7] = 192 h, sphere cell viability, culture for 8 days, read-out: A2780-SP
[8] = Table 5, read-out: the concentration (second list of b710, cell line not named; matches A2780-SP column)
[9] = Table 2, read-out: concentration at which Pin1 inhibitory activity was exhibited
[10] = concentration at which the Pin1 enzyme activity is inhibited, 2 hours at room temperature, fluorescence 490 nm/520 nm, read-out: Pin 1 inhibition
[11] = 192 h, sphere cell viability, culture for 8 days, read-out: MCF7-SP
[12] = 72 h, cell viability, culture for 3 days, read-out: A2780
[13] = A2780, Table 5, read-out: A2780 cell concentration
[14] = 72 h, cell viability, culture for 3 days, read-out: MCF7
[15] = MCF7, text summary of Table 4, read-out: MCF7 cell concentration

Row | SMILES | IC50 [1, 7] | IC50 [1, 8] | IC50 [2, 9] | IC50 [2, 10] | IC50 [3, 11] | IC50 ([3]; text summary of Table 4, read-out: MCF7-SP cell concentration) | IC50 [5, 12] | IC50 [5, 13] | IC50 [6, 14] | IC50 [6, 15] | activity at 10 µM [4]
1 | O=S(=O)(NCCCc1c[nH]c2ccc(Cl)cc12)c1ccc(NCCCC2CCNCC2)cc1 [Example 88, N-(3-(5-chloro-1H-indole-3-yl)propyl)-4-((3-(piperidine-4-yl)propyl)amino)benzenesulfonamide] | < 1000 nM | < 1000 nM | < 1000 nM | < 1000 nM | – | – | > 10 µM | – | – | – | 50 to 70%
2 | O=S(=O)(NCCCc1c[nH]c2ccc(Cl)cc12)c1ccc(CCCCN2CCCCC2)cc1 [Example 90, N-(3-(5-chloro-1H-indole-3-yl)propyl)-4-(4-(piperidine-1-yl)butyl)benzenesulfonamide] | < 1000 nM | < 1000 nM | < 1000 nM | < 1000 nM | – | – | > 10 µM | – | – | – | 35 to 50%
3 | CN1CCC(CCCOc2ccc(S(=O)(=O)NCCCc3c[nH]c4ccc(Cl)cc34)cc2)CC1 [Example 92, N-(3-(5-chloro-1H-indole-3-yl)propyl)-4-(3-(1-methylpiperidine-4-yl)propoxy)benzenesulfonamide] | < 1000 nM | < 1000 nM | < 1000 nM | < 1000 nM | – | – | > 10 µM | – | – | – | 0 to 35%
4 | CN1CCN(CCCOc2ccc(S(=O)(=O)NCCCc3c[nH]c4ccc(Cl)cc34)cc2F)CC1 [Example 103, N-(3-(5-chloro-1H-indole-3-yl)propyl)-3-fluoro-4-(3-(4-methylpiperazine-1-yl)propoxy)benzenesulfonamide] | < 1000 nM | < 1000 nM | < 1000 nM | < 1000 nM | – | – | > 10 µM | – | – | – | 35 to 50%
5 | O=S(=O)(NCCCc1c[nH]c2ccc(Cl)cc12)c1ccc(OCCCN2CCC(O)CC2)c(F)c1 [Example 105, N-(3-(5-chloro-1H-indol-3-yl)propyl)-3-fluoro-4-(3-(4-hydroxypiperidin-1-yl)propoxy)benzenesulfonamide] | < 1000 nM | < 1000 nM | < 1000 nM | < 1000 nM | – | – | > 10 µM | – | – | – | 70 to 100%
6 | O=S(=O)(NCCCc1c[nH]c2ccc(Cl)cc12)c1ccc(OCCCN2CCCNCC2)c(F)c1 [Example 106, 4-(3-(1,4-diazepan-1-yl)propoxy)-N-(3-(5-chloro-1H-indol-3-yl)propyl)-3-fluorobenzenesulfonamide] | < 1000 nM | < 1000 nM | < 1000 nM | < 1000 nM | – | – | 1 to 10 µM | < 10 µM | – | – | 50 to 70%
7 | O=S(=O)(NCCCc1c[nH]c2ccc(Cl)cc12)c1ccc(Oc2cccc(N3CCNCC3)c2)cc1 [Example 121, N-(3-(5-chloro-1H-indol-3-yl)propyl)-4-(3-(piperazin-1-yl)phenoxy)benzenesulfonamide] | < 1000 nM | < 1000 nM | < 1000 nM | < 1000 nM | – | – | 1 to 10 µM | < 10 µM | – | – | 0 to 35%
8 | CN1CCN(c2cccc(Nc3ccc(S(=O)(=O)NCCCc4c[nH]c5ccc(Cl)cc45)cc3)c2)CC1 [Example 123, N-(3-(5-chloro-1H-indole-3-yl)propyl)-4-((3-(4-methylpiperazine-1-yl)phenyl)amino)benzenesulfonamide] | 1000 to 10000 nM | – | < 1000 nM | < 1000 nM | – | – | 1 to 10 µM | < 10 µM | – | – | 70 to 100%

Continued, in another order:

Row | IC50 [1, 7] | IC50 [1, 8] | IC50 [2, 9] | IC50 [2, 10] | IC50 [3, 11] | IC50 ([3]; text summary of Table 4, read-out: MCF7-SP cell concentration) | IC50 [5, 12] | IC50 [5, 13] | IC50 [6, 14] | IC50 [6, 15] | SMILES | activity at 10 µM [4]
9 | < 1000 nM | < 1000 nM | < 1000 nM | < 1000 nM | 1 to 10 µM | < 10 µM | 1 to 10 µM | < 10 µM | 1 to 10 µM | < 10 µM | O=S(=O)(NCCCc1c[nH]c2ccc(Cl)cc12)c1ccc(OCCCN2CCNCC2)cc1 [Example 70, N-(3-(5-chloro-1H-indol-3-yl)propyl)-4-(3-(piperazin-1-yl)propoxy)benzenesulfonamide] | 0 to 35%
10 | 1000 to 10000 nM | – | < 1000 nM | < 1000 nM | > 10 µM | – | 1 to 10 µM | < 10 µM | 1 to 10 µM | < 10 µM | O=S(=O)(NCCCc1c[nH]c2ccc(Cl)cc12)c1ccc(OCCCN2CCC(O)CC2)cc1 [Example 75, N-(3-(5-chloro-1H-indol-3-yl)propyl)-4-(3-(4-hydroxypiperidin-1-yl)propoxy)benzenesulfonamide] | 0 to 35%
11 | 1000 to 10000 nM | – | < 1000 nM | < 1000 nM | – | – | > 10 µM | – | – | – | CNC1CN(CCCOc2ccc(S(=O)(=O)NCCCc3c[nH]c4ccc(Cl)cc34)cc2)C1 [Example 77, N-(3-(5-chloro-1H-indole-3-yl)propyl)-4-(3-(3-(methylamino)azetidine-1-yl)propoxy)benzenesulfonamide] | 0 to 35%
12 | < 1000 nM | < 1000 nM | < 1000 nM | < 1000 nM | > 10 µM | – | > 10 µM | – | > 10 µM | – | O=S(=O)(NCCCc1c[nH]c2ccc(Cl)cc12)c1ccc(OCCCN2CCNCC2)nc1 [Example 79, N-(3-(5-chloro-1H-indole-3-yl)propyl)-6-(3-(piperazine-1-yl)propoxy)pyridine-3-sulfonamide] | 0 to 35%
13 | < 1000 nM | < 1000 nM | < 1000 nM | < 1000 nM | – | – | 1 to 10 µM | < 10 µM | – | – | O=S(=O)(NCCCc1c[nH]c2ccc(Cl)cc12)c1ccc(OCCCC2CCNCC2)cc1 [Example 93, N-(3-(5-chloro-1H-indole-3-yl)propyl)-4-(3-(piperidine-4-yl)propoxy)benzenesulfonamide] | 0 to 35%
14 | < 1000 nM | < 1000 nM | < 1000 nM | < 1000 nM | – | – | > 10 µM | – | – | – | O=S(=O)(NCCCc1c[nH]c2ccc(Cl)cc12)c1ccc(OCCCN2CCNCC2)c(F)c1 [Example 104, N-(3-(5-chloro-1H-indol-3-yl)propyl)-3-fluoro-4-(3-(piperazin-1-yl)propoxy)benzenesulfonamide] | 70 to 100%
